Laboratory results reported in patent US11702411B2, “Pyridine, pyrazine, and triazine compounds as allosteric SHP2 inhibitors” (Revolution Medicines, Inc., priority 2017, dated 2023).
Where two headings read alike, the source gives them in different places.

Biological target: SHP2 (Homo sapiens (Human), UniProt Q06124)
Test: SHP2 allosteric inhibition assay (DiFMUP prompt fluorescence, activating peptide)
Type: biochemical
Details: 0.2 nM SHP2, 0.5 μM activating peptide, DiFMUP substrate
Description: Without wishing to be bound by theory, SHP is allosterically activated through binding of bis-tyrosyl-phosphorylated peptides to its Src Homology 2 (SH2) domains. The latter activation step leads to the release of the auto-inhibitory interface of SHP2, which in turn renders the SHP2 protein tyrosine phosphatase (PTP) active and available for substrate recognition and reaction catalysis. The catalytic activity of SHP2 was monitored using the surrogate substrate DiFMUP in a prompt fluorescence assay format.
The phosphatase reactions were performed at room temperature in 96-well black polystyrene plate, flat bottom, non-binding surface (Corning, Cat #3650) using a final reaction volume of 100 μL and the following assay buffer conditions: 50 mM HEPES, pH 7.2, 100 mM NaCl, 0.5 mM EDTA, 0.05% P-20, 1 mM DTT.
The inhibition of SHP2 by compounds of the present disclosure (concentrations varying from 0.00005-10 μM) was monitored using an assay in which 0.2 nM of SHP2 was incubated with 0.5 μM of Activating Peptide 1 (sequence: H2N-LN(pY)IDLDLV(dPEG8)LST(pY)ASINFQK-amide) or Activating Peptide 2 (sequence: H2N-LN(pY)AQLWHA(dPEG8)LTI(pY)ATIRRF-amide). After 30-60-minutes incubation at 25° C., the surrogate substrate DiFMUP (Invitrogen, Cat #D6567) was added to the reaction and activity was determined by a kinetic read using a microplate reader (Envision, Perkin-Elmer or Spectramax M5, Molecular Devices). The excitation and emission wavelengths were 340 nm and 450 nm, respectively. Initial rates were determined from a linear fit of the data, and the inhibitor dose response curves were analyzed using normalized IC50 regression curve fitting with control based normalization.

Sequence of SHP2 (Q06124 whole entry): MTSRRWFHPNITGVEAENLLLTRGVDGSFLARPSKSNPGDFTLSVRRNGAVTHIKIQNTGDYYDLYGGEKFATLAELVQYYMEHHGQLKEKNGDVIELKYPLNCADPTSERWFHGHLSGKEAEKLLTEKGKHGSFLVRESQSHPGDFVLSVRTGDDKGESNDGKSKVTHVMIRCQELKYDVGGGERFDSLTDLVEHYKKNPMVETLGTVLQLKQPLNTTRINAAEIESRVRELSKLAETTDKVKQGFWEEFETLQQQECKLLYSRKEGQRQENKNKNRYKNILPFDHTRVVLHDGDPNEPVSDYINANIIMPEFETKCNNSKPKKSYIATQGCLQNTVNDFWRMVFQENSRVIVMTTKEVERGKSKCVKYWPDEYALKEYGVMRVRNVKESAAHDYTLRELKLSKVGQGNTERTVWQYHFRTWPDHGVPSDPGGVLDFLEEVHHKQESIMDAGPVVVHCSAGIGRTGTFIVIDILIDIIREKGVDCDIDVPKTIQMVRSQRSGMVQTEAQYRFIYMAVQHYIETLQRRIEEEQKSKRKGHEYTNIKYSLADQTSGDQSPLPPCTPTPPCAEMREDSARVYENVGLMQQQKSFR

Row | Structure (SMILES) | IC50 (read-out: SHP2 Allosteric IC50) [nM] | IC50 (read-out: SHP2 IC50) [nM]
1 | C[C@@H]1OCC2(CCN(c3ncc(-c4c(Cl)c(Cl)cc5c4OCO5)nc3CO)CC2)[C@@H]1N [Compound 6, {3-[(3S,4S)-4-amino-3-methyl-2-oxa-8-azaspiro[4.5]decan-8-yl]-6-(5,6-dichloro-2H-1,3-benzodioxol-4-yl)pyrazin-2-yl}methanol] | 50 to 500 | –
2 | C[C@@H]1OCC2(CCN(c3ncc(-c4ccc5nccnc5c4Cl)nc3CO)CC2)[C@@H]1N [Compound 9, {3-[(3S,4S)-4-amino-3-methyl-2-oxa-8-azaspiro[4.5]decan-8-yl]-6-(5-chloroquinoxalin-6-yl)pyrazin-2-yl}methanol] | 50 to 500 | –
3 | CC1(N)CCN(c2ncc(Sc3ccnc(N)c3Cl)nc2CO)CC1 [Compound 4, (6-((2-amino-3-chloropyridin-4-yl)thio)-3-(4-amino-4-methylpiperidin-1-yl)pyrazin-2-yl)methanol] | ≤ 50 | –
4 | C[C@@H]1OCC2(CCN(c3ncc(-c4c(O)ccc(Cl)c4Cl)nc3CO)CC2)[C@@H]1N [Compound 8, 2-{5-[(3S,4S)-4-amino-3-methyl-2-oxa-8-azaspiro[4.5]decan-8-yl]-6-(hydroxymethyl)pyrazin-2-yl}-3,4-dichlorophenol] | 50 to 500 | –
5 | C[C@@H]1OCC2(CCN(c3ncc(-c4cccc5cc[nH]c45)nc3CO)CC2)[C@@H]1N [Compound 11, {3-[(3S,4S)-4-amino-3-methyl-2-oxa-8-azaspiro[4.5]decan-8-yl]-6-(1H-indol-7-yl)pyrazin-2-yl}methanol] | ≤ 50 | –
6 | C[C@@H]1OCC2(CCN(c3ncc(Sc4cccc(Cl)c4Cl)nc3CO)CC2)[C@@H]1N [Compound 30, {3-[(3S,4S)-4-amino-3-methyl-2-oxa-8-azaspiro[4.5]decan-8-yl]-6-[(2,3-dichlorophenyl)sulfanyl]pyrazin-2-yl}methanol] | ≤ 50 | –
7 | C[C@@H]1OCC2(CCN(c3ncc(-c4cccc(Cl)c4Cl)nc3C(F)F)CC2)[C@@H]1N [Compound 35, (3S,4S)-8-[5-(2,3-dichlorophenyl)-3-(difluoromethyl)pyrazin-2-yl]-3-methyl-2-oxa-8-azaspiro[4.5]decan-4-amine] | 50 to 500 | –
8 | C[C@@H]1OCC2(CCN(c3ncc(Sc4cccc(C(=O)N(C)C)c4Cl)nc3CO)CC2)[C@@H]1N [Compound 28, 3-({5-[(3S,4S)-4-amino-3-methyl-2-oxa-8-azaspiro[4.5]decan-8-yl]-6-(hydroxymethyl)pyrazin-2-yl}sulfanyl)-2-chloro-N,N-dimethylbenzamide] | ≤ 50 | –
9 | N[C@@H]1CCCC12CCN(c1ncc(-c3ccnc(Cl)c3Cl)nc1CO)CC2 [Compound 1, (3-[(1R)-1-amino-8-azaspiro[4.5]decan-8-yl]-6-(2,3-dichloropyridin-4-yl)pyrazin-2-yl)methanol] | 50 to 500 | 145
10 | C[C@@H]1OCC2(CCN(c3ncc(Sc4ccnc(NC5CCOCC5)c4Cl)nc3CO)CC2)[C@@H]1N [Compound 27, {3-[(3S,4S)-4-amino-3-methyl-2-oxa-8-azaspiro[4.5]decan-8-yl]-6-({3-chloro-2-[(oxan-4-yl)amino]pyridin-4-yl}sulfanyl)pyrazin-2-yl}methanol] | ≤ 50 | –
